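Five compound concentrations were applied to cells in 96-well plates for 48 hours; endpoints were derived by simple linear interpolation of the resulting dose-response curve. GI50: concentration for 50% inhibition of growth.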 Calls of active or inactive are those of the source. Cut-off read from the data, not from the text of the source: active = GI50 up to about 1.1 µM and inactive = higher.
Key:
Assay in all cases: inhibition of tumour cell growth, NCI panel, 48 h
SK-MEL-2 = test system: SK-MEL-2
SK-OV-3 = test system: SK-OV-3
U-251 = test system: U-251
SK-MEL-5 = test system: SK-MEL-5
A498 = test system: A498
MOLT-4 = test system: MOLT-4
NCI-H23 = test system: NCI-H23
A549 = test system: A549
SF-295 = test system: SF-295
HT-29 = test system: HT-29
DMS-114 = test system: DMS-114
COLO 205 = test system: COLO 205
SNB-75 = test system: SNB-75
RXF 393 = test system: RXF 393
SNB-78 = test system: SNB-78
KM-20L2 = test system: KM-20L2
ACHN = test system: ACHN
EKVX = test system: EKVX
HCC 2998 = test system: HCC 2998
UACC-257 = test system: UACC-257
NCI-H460 = test system: NCI-H460
HL-60 = test system: HL-60
HOP-18 = test system: HOP-18
SF-268 = test system: SF-268
SF-539 = test system: SF-539
CAKI-1 = test system: CAKI-1
786-0 = test system: 786-0
M19-MEL = test system: M19-MEL
SW-620 = test system: SW-620
UACC-62 = test system: UACC-62
HOP-62 = test system: HOP-62
HOP-92 = test system: HOP-92
CCRF-CEM = test system: CCRF-CEM
OVCAR-8 = test system: OVCAR-8
RXF 631 = test system: RXF 631
IGROV-1 = test system: IGROV-1
OVCAR-5 = test system: OVCAR-5
UO-31 = test system: UO-31
SK-MEL-28 = test system: SK-MEL-28
LOX IMVI = test system: LOX IMVI
DMS-273 = test system: DMS-273
RPMI-8226 = test system: RPMI-8226
NCI-H522 = test system: NCI-H522
OVCAR-3 = test system: OVCAR-3
TK-10 = test system: TK-10
SNB-19 = test system: SNB-19
K562 = test system: K562
KM12 = test system: KM12
DLD-1 = test system: DLD-1
Malme-3M = test system: Malme-3M
LXFL 529 = test system: LXFL 529
M14 = test system: M14
OVCAR-4 = test system: OVCAR-4
HCT-15 = test system: HCT-15
NCI-H226 = test system: NCI-H226
SN12C = test system: SN12C
HCT-116 = test system: HCT-116
XF498 = test system: XF498
SR = test system: SR

Structure (SMILES): CC(=O)NNc1ncc(C(=O)/C=C/c2ccccc2C)s1
- GI50 (SK-MEL-2): > 100 µM (inactive)
- GI50 (SK-OV-3): > 100 µM (inactive)
- GI50 (U-251): > 100 µM (inactive)
- GI50 (SK-MEL-5): > 100 µM (inactive)
- GI50 (A498): > 100 µM (inactive)
- GI50 (MOLT-4): > 100 µM (inactive)
- GI50 (NCI-H23): > 100 µM (inactive)
- GI50 (A549): > 100 µM (inactive)
- GI50 (SF-295): > 100 µM (inactive)
- GI50 (HT-29): > 100 µM (inactive)
- GI50 (DMS-114): > 100 µM (inactive)
- GI50 (COLO 205): > 100 µM (inactive)
- GI50 (SNB-75): > 100 µM (inactive)
- GI50 (RXF 393): > 100 µM (inactive)
- GI50 (SNB-78): > 100 µM (inactive)
- GI50 (KM-20L2): > 100 µM (inactive)
- GI50 (ACHN): > 100 µM (inactive)
- GI50 (EKVX): > 100 µM (inactive)
- GI50 (HCC 2998): > 100 µM (inactive)
- GI50 (UACC-257): > 100 µM (inactive)
- GI50 (NCI-H460): > 100 µM (inactive)
- GI50 (HL-60): > 100 µM (inactive)
- GI50 (HOP-18): > 100 µM (inactive)
- GI50 (SF-268): > 100 µM (inactive)
- GI50 (SF-539): > 100 µM (inactive)
- GI50 (CAKI-1): > 100 µM (inactive)
- GI50 (786-0): > 100 µM (inactive)
- GI50 (M19-MEL): > 100 µM (inactive)
- GI50 (SW-620): > 100 µM (inactive)
- GI50 (UACC-62): > 100 µM (inactive)
- GI50 (HOP-62): > 100 µM (inactive)
- GI50 (HOP-92): > 100 µM (inactive)
- GI50 (CCRF-CEM): > 100 µM (inactive)
- GI50 (OVCAR-8): > 100 µM (inactive)
- GI50 (RXF 631): > 100 µM (inactive)
- GI50 (IGROV-1): > 100 µM (inactive)
- GI50 (OVCAR-5): > 100 µM (inactive)
- GI50 (UO-31): > 100 µM (inactive)
- GI50 (SK-MEL-28): > 100 µM (inactive)
- GI50 (LOX IMVI): > 100 µM (inactive)
- GI50 (DMS-273): > 100 µM (inactive)
- GI50 (RPMI-8226): > 100 µM (inactive)
- GI50 (NCI-H522): > 100 µM (inactive)
- GI50 (OVCAR-3): > 100 µM (inactive)
- GI50 (TK-10): > 100 µM (inactive)
- GI50 (SNB-19): > 100 µM (inactive)
- GI50 (K562): > 100 µM (inactive)
- GI50 (KM12): > 100 µM (inactive)
- GI50 (DLD-1): > 100 µM (inactive)
- GI50 (Malme-3M): > 100 µM (inactive)

Structure (SMILES): CC(=O)OCCOCNC(=S)N/N=C(\C)c1ccco1
- GI50 (SK-MEL-2): > 100 µM (inactive)
- GI50 (SK-OV-3): > 100 µM (inactive)
- GI50 (U-251): > 100 µM (inactive)
- GI50 (SK-MEL-5): > 100 µM (inactive)
- GI50 (A498): > 100 µM (inactive)
- GI50 (LXFL 529): > 100 µM (inactive)
- GI50 (NCI-H23): > 100 µM (inactive)
- GI50 (A549): > 100 µM (inactive)
- GI50 (SF-295): > 100 µM (inactive)
- GI50 (HT-29): > 100 µM (inactive)
- GI50 (M14): > 100 µM (inactive)
- GI50 (DMS-114): > 100 µM (inactive)
- GI50 (COLO 205): > 100 µM (inactive)
- GI50 (SNB-75): 61 µM (inactive)
- GI50 (RXF 393): > 100 µM (inactive)
- GI50 (SNB-78): > 100 µM (inactive)
- GI50 (KM-20L2): > 100 µM (inactive)
- GI50 (OVCAR-4): > 100 µM (inactive)
- GI50 (ACHN): > 100 µM (inactive)
- GI50 (EKVX): > 100 µM (inactive)
- GI50 (HCC 2998): > 100 µM (inactive)
- GI50 (HCT-15): > 100 µM
- GI50 (UACC-257): > 100 µM (inactive)
- GI50 (NCI-H460): > 100 µM (inactive)
- GI50 (HOP-18): > 100 µM (inactive)
- GI50 (SF-268): > 100 µM (inactive)
- GI50 (NCI-H226): 64.6 µM (inactive)
- GI50 (SF-539): > 100 µM (inactive)
- GI50 (786-0): > 100 µM (inactive)
- GI50 (M19-MEL): > 100 µM (inactive)
- GI50 (SW-620): > 100 µM (inactive)
- GI50 (UACC-62): > 100 µM (inactive)
- GI50 (SN12C): > 100 µM (inactive)
- GI50 (HOP-62): > 100 µM (inactive)
- GI50 (CCRF-CEM): > 100 µM (inactive)
- GI50 (OVCAR-8): > 100 µM (inactive)
- GI50 (RXF 631): > 100 µM (inactive)
- GI50 (IGROV-1): > 100 µM (inactive)
- GI50 (OVCAR-5): > 100 µM (inactive)
- GI50 (UO-31): > 100 µM (inactive)
- GI50 (SK-MEL-28): > 100 µM (inactive)
- GI50 (LOX IMVI): > 100 µM (inactive)
- GI50 (DMS-273): > 100 µM (inactive)
- GI50 (HCT-116): > 100 µM (inactive)
- GI50 (NCI-H522): > 100 µM (inactive)
- GI50 (OVCAR-3): > 100 µM (inactive)
- GI50 (TK-10): > 100 µM (inactive)
- GI50 (SNB-19): > 100 µM (inactive)
- GI50 (K562): > 100 µM (inactive)
- GI50 (KM12): > 100 µM (inactive)
- GI50 (DLD-1): > 100 µM (inactive)
- GI50 (Malme-3M): > 100 µM (inactive)

Structure (SMILES): Cc1cc2c(CC(=O)O)n[nH]c2c(C(=O)O)c1C
- GI50 (SK-MEL-2): > 100 µM (inactive)
- GI50 (SK-OV-3): > 100 µM (inactive)
- GI50 (U-251): > 100 µM (inactive)
- GI50 (MOLT-4): > 100 µM (inactive)
- GI50 (LXFL 529): > 100 µM (inactive)
- GI50 (NCI-H23): > 100 µM (inactive)
- GI50 (A549): > 100 µM (inactive)
- GI50 (SF-295): > 100 µM (inactive)
- GI50 (HT-29): > 100 µM (inactive)
- GI50 (COLO 205): > 100 µM (inactive)
- GI50 (SNB-75): > 100 µM (inactive)
- GI50 (RXF 393): > 100 µM (inactive)
- GI50 (SNB-78): > 100 µM (inactive)
- GI50 (KM-20L2): > 100 µM (inactive)
- GI50 (ACHN): > 100 µM (inactive)
- GI50 (EKVX): > 100 µM (inactive)
- GI50 (HCC 2998): > 100 µM (inactive)
- GI50 (HCT-15): > 100 µM
- GI50 (UACC-257): > 100 µM (inactive)
- GI50 (XF498): > 100 µM (inactive)
- GI50 (NCI-H460): > 100 µM (inactive)
- GI50 (HL-60): > 100 µM (inactive)
- GI50 (HOP-18): > 100 µM (inactive)
- GI50 (SR): > 100 µM (inactive)
- GI50 (SF-268): > 100 µM (inactive)
- GI50 (NCI-H226): > 100 µM (inactive)
- GI50 (SF-539): > 100 µM (inactive)
- GI50 (786-0): > 100 µM (inactive)
- GI50 (M19-MEL): > 100 µM (inactive)
- GI50 (SW-620): > 100 µM (inactive)
- GI50 (UACC-62): > 100 µM (inactive)
- GI50 (SN12C): > 100 µM (inactive)
- GI50 (HOP-62): > 100 µM (inactive)
- GI50 (HOP-92): > 100 µM (inactive)
- GI50 (CCRF-CEM): > 100 µM (inactive)
- GI50 (OVCAR-8): > 100 µM (inactive)
- GI50 (RXF 631): > 100 µM (inactive)
- GI50 (OVCAR-5): > 100 µM (inactive)
- GI50 (UO-31): > 100 µM (inactive)
- GI50 (SK-MEL-28): > 100 µM (inactive)
- GI50 (LOX IMVI): > 100 µM (inactive)
- GI50 (DMS-273): > 100 µM (inactive)
- GI50 (HCT-116): > 100 µM (inactive)
- GI50 (RPMI-8226): > 100 µM (inactive)
- GI50 (OVCAR-3): > 100 µM (inactive)
- GI50 (TK-10): > 100 µM (inactive)
- GI50 (SNB-19): > 100 µM (inactive)
- GI50 (DLD-1): > 100 µM (inactive)
- GI50 (Malme-3M): > 100 µM (inactive)

Source: ChEMBL document CHEMBL1201862, “PubChem BioAssay data set” (2004)
